From patent publication US20100317626A1, “The Use Of (3-Amino-2-Fluoropropyl) Phosphinic Acid For Treatment Of NERD” (ASTRAZENECA AB, priority 2007, published 2010)

Columns and labels:
[1] = tested on: transient lower esophageal sphincter relaxations (TLESRs); assay: Clinical study: number of TLESRs after a standardised meal, single-blind randomised placebo-controlled; type: in vivo, healthy volunteers; conditions: for reduction of the number of transient lower esophageal sphincter relaxations (TLESRs) as compared to placebo: healthy volunteers, 0-3 hours after intake of a standardised meal completed 1 hour after drug intake
Method: A clinical study of (2R)-(3-Amino-2-fluoropropyl)phosphinic acid was performed. The study was a single-blind, randomised, parallel group, placebo-controlled study in healthy volunteers. Each subject was given 2 doses of (2R)-(3-Amino-2-fluoropropyl)phosphinic acid in escalating order and one placebo dose. A dose of (2R)-(3-Amino-2-fluoropropyl)phosphinic acid 0.8 mg/kg was compared to placebo and baclofen (40 mg) was used as a positive control. The order of treatments was randomised. The number of transient lower esophageal sphincter relaxations (TLESRs) 0-3 hours after intake of a standardised meal, (completed 1 hour after drug intake) were reduced by 36% and 47% for (2R)-(3-Amino-2-fluoropropyl)phosphinic acid and baclofen respectively, as compared to placebo (FIG. 1).

[2] = tested on: bile reflux and reflux symptoms; conditions: patients with persistent non-acid duodenogastroesophageal reflux; cited from earlier work
[3] = clinical study in healthy volunteers

Question: Which “inhibition of TLESRs (result in words)” value [1, 3] does the source give for `NC[C@@H](F)C[PH](=O)O` [(2R)-(3-Amino-2-fluoropropyl)phosphinic acid] here?
Answer: Its value is “efficacious”.

Question: And the tolerability [1, 3]?
Answer: The tolerability was “well tolerated”.

Question: What about the “reduction of the number of transient lower esophageal sphincter relaxations (TLESRs) as compared to placebo” value ([1]; dose 0.8 mg/kg) of the same molecule?
Answer: The value was 36%.

Question: Which results are given for `NCC(CC(=O)O)c1ccc(Cl)cc1` (centres unmarked) [baclofen, reference compound]?
Answer: reduction of the number of transient lower esophageal sphincter relaxations (TLESRs) as compared to placebo ([1]; baclofen 40 mg, positive control): 47%; effect on bile reflux and reflux symptoms [2]: inhibit the occurrence of bile reflux and reflux symptoms
